Test results as given in ChEMBL document CHEMBL6078615, “Sesquilignans: Current research and potential prospective” (Eur J Med Chem, 2024).
Converted amounts (≈) assume the structure as drawn.

Legend:
Ebolavirus = experiment: Antiviral activity against Ebola virus; type: functional, organism-based; settings: Orthoebolavirus
[1] = Inhibition of alpha-glucosidase (unknown origin); design: species or system Homo sapiens
RAW264.7 = experiment: Anti-inflammatory activity in mouse RAW264.7 cells assessed as inhibition of LPS-induced NO production pre-incubated for 2 hrs followed by LPS-stimulation for 22 hrs by Griess reaction assay; type: functional; design: concentration or dose not given beside the values; settings: time 24 hrs
MCF7 = experiment: Cytotoxicity against human MCF7 cells assessed as reduction in cell viability incubated for 72 hrs by MTT assay; type: functional, cell-based; settings: MCF7, 72 h
SH-SY5Y [2] = experiment: Induction of apoptosis in human SH-SY5Y cells assessed as increase in caspase-3 activity at 25 uM incubated for 72 hrs by colorimetric assay relative to control; type: functional
CNE-2 = experiment: Anticancer activity against human CNE-2 cells assessed as reduction in cell growth; type: functional, cell-based
HeLa = experiment: Cytotoxicity against human HeLa cells assessed as reduction in cell viability incubated for 48 hrs by MTT assay; type: functional, cell-based
SH-SY5Y [3] = experiment: Inhibition of H2O2-induced oxidative stress in human SH-SY5Y cells assessed as residual ROS level at 25 uM incubated for 3 hrs relative to control; type: functional
HT-29 = experiment: Antiproliferative activity against human HT-29 cells assessed as reduction in cell viability after 72 hrs by MTS assay; type: functional, cell-based; settings: HT-29, 72 h
HL-60 = experiment: Antiproliferative activity against human HL-60 cells assessed as reduction in cell viability incubated for 72 hrs by MTT assay; type: functional, cell-based; settings: HL-60, 72 h
HepG2 = experiment: Cytotoxicity against human HepG2 cells assessed as reduction in cell viability by MTT assay; type: functional, cell-based
K562 = experiment: Antiproliferative activity against human K562 cells assessed as reduction in cell viability incubated for 72 hrs by CCK-8 assay; type: functional, cell-based; settings: K562, 72 h
BV-2 [4] = experiment: Anti-inflammatory activity against mouse BV-2 cells assessed as inhibition of LPS-induced NO production pretreated for 2 hrs followed stimulated with LPS for 22 hrs by Griess reaction assay; type: functional, cell-based
BV-2 [5] = experiment: Anti-inflammatory activity against mouse BV-2 cells assessed as inhibition of LPS-induced NO production at 10 uM pretreated for 2 hrs followed stimulated with LPS for 22 hrs by Griess reaction assay relative to control; type: functional; settings: time 24 hrs
Acetylcholinesterase = Acetylcholinesterase (Homo sapiens, UniProt P22303); experiment: Inhibition of AChE (unknown origin)
Chain of Acetylcholinesterase (P22303 whole entry): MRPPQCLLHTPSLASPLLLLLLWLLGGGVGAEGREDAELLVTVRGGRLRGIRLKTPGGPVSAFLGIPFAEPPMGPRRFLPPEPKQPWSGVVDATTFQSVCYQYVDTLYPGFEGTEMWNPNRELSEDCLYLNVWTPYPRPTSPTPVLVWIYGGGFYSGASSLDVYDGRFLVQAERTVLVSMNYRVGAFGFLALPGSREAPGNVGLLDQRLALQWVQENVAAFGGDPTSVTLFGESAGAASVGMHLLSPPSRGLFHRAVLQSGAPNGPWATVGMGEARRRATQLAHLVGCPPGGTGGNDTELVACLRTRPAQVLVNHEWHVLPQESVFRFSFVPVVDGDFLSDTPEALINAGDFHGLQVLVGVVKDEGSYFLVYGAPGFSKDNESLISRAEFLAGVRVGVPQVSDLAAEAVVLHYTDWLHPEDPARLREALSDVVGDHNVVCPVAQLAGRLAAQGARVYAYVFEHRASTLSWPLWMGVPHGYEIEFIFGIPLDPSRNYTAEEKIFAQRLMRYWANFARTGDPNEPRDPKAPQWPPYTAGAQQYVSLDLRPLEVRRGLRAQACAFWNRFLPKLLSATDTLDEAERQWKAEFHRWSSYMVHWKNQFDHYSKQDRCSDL

For COc1cc([C@@H](O)[C@@H](C)Oc2ccc([C@@H]3O[C@H](c4ccc(O)c(OC)c4)[C@H](C)[C@H]3C)cc2OC)ccc1O, the EC50 (Ebolavirus) was 6.95 µM.
Compound COc1ccc([C@@H](O)[C@@H](C)Oc2ccc([C@H]3O[C@H](c4ccc(OC)c(OC)c4)[C@H](C)[C@H]3C)cc2OC)cc1OC has an EC50 (Ebolavirus) of 1.7 µM.
OC/C=C/c1ccc2c(c1)O[C@H](c1ccc3c(c1)O[C@@H](c1ccc(O)c(O)c1)[C@H](CO)O3)[C@@H](CO)O2 gave an IC50 [1] of 0.62 µM.
C=CCc1ccc2c(c1)O[C@@H](c1ccc(O)c(O)c1)[C@H](Cc1cc(O)c(O)cc1CC=C)O2 gave an Activity (RAW264.7) of 9.87%.
COc1ccc([C@@H]2O[C@H](c3ccc(OC)c(O[C@@H](C)[C@@H](OC)c4ccc(OC)c(O)c4)c3)[C@@H](C)[C@@H]2C)cc1O showed an IC50 (MCF7) of 8.4 µM and an Activity (RAW264.7) of 18.1%.
Work on COc1cc([C@@H](O)[C@@H](CO)Oc2ccc([C@@H](O)[C@H](CO)Oc3c(OC)cc(CCCO)cc3OC)cc2OC)ccc1O yielded an Activity (SH-SY5Y [2]) of 77.58%.
COc1cc(CC(CO)C(CO)Cc2ccc(OC(CO)C(O)c3ccc(O)c(OC)c3)c(OC)c2)ccc1O (stereo not drawn) gave an EC50 (CNE-2) of 2.4 µg/mL (≈ 4.3 µM) and an IC50 (HeLa) of 195 µg/mL (≈ 348 µM).
COc1cc([C@H](OC)[C@@H](CO)Oc2c(OC)cc([C@@H]3Oc4c(OC)cc([C@H](O)[C@@H](O)CO)cc4[C@H]3CO)cc2OC)ccc1O showed an Activity (SH-SY5Y [3]) of 76.21%.
Compound COc1cc([C@@H](O)[C@@H](CO)Oc2c(OC)cc([C@@H]3Oc4c(OC)cc([C@H](O)[C@@H](O)CO)cc4[C@H]3CO)cc2OC)ccc1O has an Activity (SH-SY5Y [3]) of 63.72%.
Compound COc1cc([C@@H](O)[C@@H](CO)Oc2c(OC)cc([C@@H]3OC[C@@H]4[C@H]3CO[C@H]4c3cc(OC)c(O)c(OC)c3)cc2OC)ccc1O has an IC50 [1] of 15.4 µM.
Work on Oc1ccc(/C=C/C[C@@H]2CC(C(O)c3ccc(O)cc3)CO[C@H]2c2ccc(O)cc2)cc1 (stereo partly drawn) yielded an Activity (RAW264.7) of 33%.
COc1cc([C@H](OC)[C@@H](CO)Oc2ccc([C@@H](O)[C@H](CO)Oc3ccc(CCCO)cc3OC)cc2OC)ccc1O showed an Activity (SH-SY5Y [3]) of 74.22%.
Work on COc1cc([C@H](O)[C@@H](CO)Oc2ccc([C@@H](O)[C@@H](CO)Oc3c(OC)cc(CCCO)cc3OC)cc2OC)ccc1O yielded an Activity (SH-SY5Y [3]) of 77.58%.
In the case of COc1cc([C@@H]2c3cc(O[C@H](CO)[C@@H](O)c4ccc(O)c(OC)c4)c(OC)cc3C[C@H](CO)[C@@H]2CO)ccc1O, the Activity (SH-SY5Y [2]) is reported as 79.36%.
In the case of COc1cc([C@H]2O[C@H](c3ccc4c(c3)OCO4)[C@H](C)[C@H]2C)ccc1O[C@H](C)[C@H](O)c1ccc2c(c1)OCO2, the IC50 (HT-29) is reported as 10 µM.
Work on COC[C@H]1c2cc(C[C@@H]3C(=O)OC[C@H]3Cc3ccc(O)c(OC)c3)ccc2O[C@@H]1c1ccc(O)c(OC)c1 yielded an Activity (RAW264.7) of 8.59%.
In the case of COc1cc([C@@H](O)[C@@H](C)Oc2ccc([C@H]3O[C@@H](c4ccc(O)c(OC)c4)[C@H](C)[C@H]3C)cc2OC)ccc1O, the IC50 (HL-60) is reported as 11 µM, the IC50 (HepG2) is reported as 11 µM and the IC50 (MCF7) is reported as 9.8 µM. It also gave an Activity (RAW264.7) of 18.1%.
COc1cc([C@H]2Oc3c(OC)cc(C[C@H]4C(=O)OC[C@@H]4Cc4ccc(OC)c(OC)c4)cc3[C@@H]2CO)ccc1O showed an IC50 (K562) of 38.5 µg/mL (≈ 69.9 µM).
COc1cc([C@@H](O)[C@@H](CO)Oc2c(OC)cc([C@@H]3Oc4c(OC)cc([C@H](O)[C@H](O)CO)cc4[C@H]3CO)cc2OC)ccc1O showed an Activity (SH-SY5Y [3]) of 75.63%.
COc1cc(/C=C/C=O)cc2c1O[C@H](c1ccc3c(c1)[C@H](CO)[C@@H](c1ccc(O)cc1)O3)[C@H]2CO showed an IC50 (BV-2 [4]) of 38.9 µM.
Work on COc1cc([C@H]2OC[C@H]3[C@@H]2CO[C@@H]3c2cc(OC)c3c(c2)[C@H](CO)[C@@H](c2ccc(O)c(OC)c2)O3)ccc1O yielded an inhibition at 10 µM (BV-2 [5]) of 50.7%.
In the case of COc1ccc([C@@H](O)[C@@H](C)Oc2ccc([C@H]3O[C@H](c4ccc5c(c4)OCO5)[C@H](C)[C@H]3C)cc2OC)cc1OC, the Activity (RAW264.7) is reported as 2.62%.
For C=CCc1ccc(Oc2cc(CC=C)cc(-c3cc(CC=C)ccc3O)c2O)cc1, the IC50 (Acetylcholinesterase) was 10 µM.
